The nature of data set [1]: Cytotoxicity against human Hep2 cells after 5 days by CCK8 assay. The settings on record: HEp-2 cells.
A short description of data set [2]: Clearance in Balb/c mouse at 1 mg/kg, iv administered as single bolus dose by LC-MS/MS analysis. The settings on record: in vivo.
Data set [3] in a line: Half life in Balb/c mouse at 1 mg/kg, iv administered as single bolus dose by LC-MS/MS analysis. The note with it: in vivo.
Data set [4] can be described thus: Volume of distribution in Balb/c mouse at 1 mg/kg, iv administered as single bolus dose by LC-MS/MS analysis. The note with it: in vivo.
Data set [5] deals with Human orthopneumovirus. Description: Antiviral activity against human respiratory syncytial virus A2 infected in po dosed Balb/c mouse assessed as reduction in lung viral load administered once daily pretreated for 1 hr on day 0 followed by viral infection and subsequent compound dosing for 3 days measured after 1 day post last dose by plaque assay. The data set is classed as functional, organism-based.

Data set [6] has as its system Human orthopneumovirus. Briefly: Antiviral activity against human respiratory syncytial virus A2 infected in Balb/c mouse assessed as reduction in lung viral load at 50 mg/kg, po administered once daily pretreated for 1 hr on day 0 followed by viral infection and subsequent compound dosing for 3 days measured after 1 day post last dose by plaque assay. The data set is classed as functional.

The test system of data set [7] is Human orthopneumovirus. Description: Antiviral activity against human respiratory syncytial virus A2 infected in Balb/c mouse assessed as reduction in lung viral load at 5 mg/kg, po administered once daily pretreated for 1 hr on day 0 followed by viral infection and subsequent compound dosing for 3 days measured after 1 day post last dose by plaque assay. The data set is classed as functional.

The subject of data set [8] is Human orthopneumovirus. Briefly: Antiviral activity against human respiratory syncytial virus A2 infected in Balb/c mouse assessed as reduction in lung viral load at 15 mg/kg, po administered once daily pretreated for 1 hr on day 0 followed by viral infection and subsequent compound dosing for 3 days measured after 1 day post last dose by plaque assay. The data set is classed as functional.

A short description of data set [9]: in vivo. The note with it: Balb/c, mouse, iv, 1 mg/kg.
Description: AUC (0 to infinity) in Balb/c mouse at 1 mg/kg, iv administered as single bolus dose by LC-MS/MS analysis
Data set [10] in a line: in vivo. The note with it: Balb/c, mouse, po, 10 mg/kg.
Description: Cmax in Balb/c mouse at 10 mg/kg, po administered as single dose via gavage by LC-MS/MS analysis
Data set [11] in a line: in vivo. The note with it: Balb/c, mouse, po, 10 mg/kg. This is another data set of the same source.
Description: Tmax in Balb/c mouse at 10 mg/kg, po administered as single dose via gavage by LC-MS/MS analysis
The nature of data set [12]: in vivo. The settings on record: Balb/c, mouse, po, 10 mg/kg. The source holds these as a separate data set.
Description: AUC (0 to infinity) in Balb/c mouse at 10 mg/kg, po administered as single dose via gavage by LC-MS/MS analysis
The nature of data set [13]: in vivo. The settings on record: Balb/c, mouse, po, 10 mg/kg. This is another data set of the same source.
Description: Oral bioavailability in Balb/c mouse at 10 mg/kg administered as single dose via gavage by LC-MS/MS analysis

Data on 44 compounds can be found in ChEMBL document CHEMBL4138299, “Discovery of 3,3'-Spiro[Azetidine]-2-oxo-indoline Derivatives as Fusion Inhibitors for Treatment of RSV Infection” (ACS Med Chem Lett, 2018).

As usually defined, the CC50 is the concentration that lowers cell viability or growth by half. By clearance is commonly meant the rate of elimination divided by the concentration. High values mean a high capacity for elimination, low ones a low capacity for elimination. Broadly, the half-life is the time in which the quantity being followed falls by half. For orientation: Vd means the apparent volume that relates the amount in the body to the concentration in plasma or blood. The low end stands for confinement near the circulation, the high end for extensive tissue distribution. A word on the AUC(0-inf): it is total exposure, with the tail of the curve extrapolated. A low value points to less exposure. The Cmax is the highest concentration seen after dosing. What is called Tmax is the time at which the peak concentration occurs. The bioavailability is the share of a dose that reaches the circulation, judged against a reference dose that is usually intravenous. High values mean much systemic uptake, low ones little systemic uptake.

Turning to `CC(C)C(=O)N1CCC2(C1)C(=O)N(Cc1nc3cc(Br)ccc3n1CCCCO)c1ccccc12` (stereo unspecified), the CC50 at 120 h in data set [1] was > 100 µM. On the same count and under the same terms, as for `Cc1cc(=O)n(Cc2nc3ccccc3n2CCCCO)c2ccccc12`, the figure is > 100 µM; as for `N#Cc1cn(Cc2nc3ccccc3n2CCCCO)c2ccccc12`, > 100 µM; as for `OCCCCn1c(Cn2c(C(F)(F)F)nc3ccccc32)nc2ccccc21`, > 100 µM. Still for that read-out and setting: as for `CC1(C)C(=O)N(Cc2nc3ccccc3n2CCCCO)c2ccccc21`, the figure is > 100 µM. The same measure, in the same setting: as for `O=C1N(Cc2nc3ccccc3n2CCCCO)CN(c2ccccc2)C12CCNCC2`, the figure is > 100 µM. In the case of `CC(C)C(=O)N1CC2(C1)C(=O)N(Cc1nc3cc(Br)ccc3n1CCCCO)c1ccccc12`, the CC50 at 120 h in data set [1] is > 100 µM. Still for that read-out and setting: under `O=C1N(Cc2nc3cc(Br)ccc3n2CCCCO)c2ccccc2C12CCN(C1COC1)CC2` stands > 100 µM. Same read-out and setting: as for `Cc1nc(=O)n(Cc2nc3ccccc3n2CCCCO)c2ccccc12`, the figure is > 100 µM; as for `O=C1N(Cc2nc3cc(Br)ccc3n2CCCCO)c2ccccc2C12CNC2`, > 100 µM; as for `OCCCCn1c(Cn2ccc3ccncc32)nc2ccccc21`, > 100 µM. `NCc1ccc2c(c1)nc(CN1C(=O)C3(CC3)c3ccccc31)n2CCCCO`: the CC50 at 120 h in [1] is > 100 µM.

For `O=C1N(Cc2nc3ccccc3n2CCCCO)c2cc(F)ccc2C12CC2`, in [1], the cytotoxic concentration (CC50) at 120 h is > 100 µM. The same measure, in the same setting: as for `CS(=O)(=O)N1CCC2(C1)C(=O)N(Cc1nc3cc(Br)ccc3n1CCCCO)c1ccccc12` (stereo unspecified), the figure is > 100 µM; as for `CC1CC(=O)N(Cc2nc3ccccc3n2CCCCO)c2ccccc2N1` (stereo unspecified), > 100 µM; as for `O=C1N(Cc2nc3cc(Cl)ccc3n2CCCCO)c2ccccc2C12CC2`, > 100 µM. On the same count and under the same terms, as for `Cc1c2c(nn1Cc1nc3ccccc3n1CCCCO)CCCC2`, the figure is > 100 µM.

Consider `O=C1N(Cc2nc3cc(Br)ccc3n2CCCCO)c2ccccc2C12CC2`, for which, in data set [1], the CC50 at 120 h is > 100 µM. On to `CS(=O)(=O)N1CC2(C1)C(=O)N(Cc1nc3cc(Br)ccc3n1CCCCO)c1ccccc12`, for which the CC50 at 120 h in data set [1] is > 100 µM. On the same count and under the same terms, as for `O=C1N(Cc2nc3cc(Br)ccc3n2CCCCO)c2ccccc2C12CSC2`, the figure is > 100 µM. On the same count and under the same terms, as for `O=C1N(Cc2nc3cc(F)ccc3n2CCCCO)c2ccccc2C12CC2`, the figure is > 100 µM. Still for that read-out and setting: as for `O=c1oc2ccccc2n1Cc1nc2ccccc2n1CCCCO`, the figure is > 100 µM. `CN1CC2(C1)C(=O)N(Cc1nc3cc(Br)ccc3n1CCCCO)c1ccccc12`: the CC50 at 120 h in data set [1] was > 100 µM. Still for that read-out and setting: under `O=C1N(Cc2nc3ccccc3n2CCCCO)c2cnccc2C12CC2` stands > 100 µM; under `Cc1nn(Cc2nc3ccccc3n2CCCCO)c2ccccc12`, > 100 µM. Still for that read-out and setting: under `Cc1nn(Cc2nc3ccccc3n2CCCCO)c2c1CCCC2` stands > 100 µM; under `OCCCCn1c(Cn2ncc3ccccc32)nc2ccccc21`, > 100 µM. On the same count and under the same terms, as for `O=C1NC(=O)C2(N1)C(=O)N(Cc1nc3cc(Br)ccc3n1CCCCO)c1ccccc12` (stereo unspecified), the figure is > 100 µM; as for `O=C1N(Cc2nc3cc(Br)ccc3n2CCCCO)c2ccccc2C12CCOCC2`, > 100 µM. On to `O=C1N(Cc2nc3cc(C4CCCCC4)ccc3n2CCCCO)c2ccccc2C12CC2`, for which the CC50 at 120 h in data set [1] is > 100 µM. Still for that read-out and setting: as for `O=C1N(Cc2nc3cc(C(F)(F)F)ccc3n2CCCCO)c2ccccc2C12CC2`, the figure is > 100 µM; as for `O=C1N(Cc2nc3ccccc3n2CCCCO)c2ccccc2C12CC2`, > 100 µM. For the compound `CC(C)OC(=O)N1CC2(C1)C(=O)N(Cc1nc3cc(Br)ccc3n1CCCCO)c1ccccc12`, the half-maximal cytotoxic concentration (CC50) at 120 h in data set [1] was > 100 µM. Moreover, the clearance in [2] stood at 28 mL/min/kg. Further, the half-life in data set [3] was 84 min. In data set [4], this compound registered a Vd of 1.6 L/kg. Also, in [5], the Activity result was “Dose-dependent effect”. Further, the “log(activity)” value in data set [6] was found to be 3.91; in data set [7], 1.64; in data set [8], 2.05. Also, the results for the AUC(0-inf) in data set [9] and in [12] were 1.13 µM·h and 8.08 µM·h, respectively. The compound further came in with a Cmax in data set [10] of 3.32 µM. For the same compound, the Tmax in [11] turned out to be 15 min. The same compound had a bioavailability in [13] of 71%. As to `O=C1N(Cc2nc3cc(I)ccc3n2CCCCO)c2ccccc2C12CC2`, the CC50 at 120 h in [1] is > 100 µM.

Take `CN1CCC2(CC1)C(=O)N(Cc1nc3cc(Br)ccc3n1CCCCO)c1ccccc12`: in [1], the cytotoxic concentration (CC50) at 120 h was > 100 µM. Still for that read-out and setting: under `O=C1N(Cc2nc3cc(Br)ccc3n2CCCCO)c2ccccc2C12CS(=O)(=O)C2` stands > 100 µM. The same measure, in the same setting: as for `OCCCCn1c(Cn2c(-c3cscn3)nc3ccccc32)nc2ccccc21`, the figure is > 100 µM; as for `OCCCCn1c(Cn2c3c(c4ccccc42)CCNC3)nc2ccccc21`, > 100 µM. Take `N#Cc1ccc2c(c1)nc(CN1C(=O)C3(CC3)c3ccccc31)n2CCCCO`: the CC50 at 120 h in [1] was > 100 µM. Consider `O=C1N(Cc2nc3cc(Br)ccc3n2CCCCO)c2ccccc2C12CCOC2` (stereo unspecified), for which the cytotoxic concentration (CC50) at 120 h in [1] was > 100 µM. On the same count and under the same terms, under `CC(C)OC(=O)N1CCC2(C1)C(=O)N(Cc1nc3cc(Br)ccc3n1CCCCO)c1ccccc12` (stereo unspecified) stands > 100 µM.

For the compound `CN1CCOC2(C1)C(=O)N(Cc1nc3cc(Br)ccc3n1CCCCO)c1ccccc12` (stereo unspecified), in data set [1], the CC50 at 120 h is > 100 µM. Consider `OCCCCn1c(Cn2ncc3ccncc32)nc2ccccc21`, for which the CC50 at 120 h in [1] is > 100 µM.

`Cc1ccc2c(c1)nc(CN1C(=O)C3(CC3)c3ccccc31)n2CCCCO`: in [1], the half-maximal cytotoxic concentration (CC50) at 120 h was > 100 µM.
